Reference: the supplement of paper PMC6045584
± gives the standard deviation of the averaged measurements.

Columns and labels:
[1] = compound: C[C@@H](Oc1cc(-c2cnn(C3CCNCC3)c2)cnc1N)c1c(Cl)ccc(F)c1Cl; assay: surviving fraction relative to DMSO-only wells; higher = less growth inhibition; conditions: exposure time: 5 days
Procedure, shortened: (§1)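 Lines were retained only if, across three screens, replicate Pearson r was >0.7 and median Z' was >0.3. Viability was measured as CellTiter-Glo luminescence and reported as surviving fraction relative to the median of DMSO-only wells. Readings followed 10 minutes at room temperature, after log-phase tumour cells seeded at 250–500 per well in 384-well plates had been exposed, from 24 hours after seeding, continuously for five days to inhibitors at 0.5, 1, 5, 10, 50, 100, 500 and 1000 nM.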

[2] = compound: COc1cc2ncnc(Nc3ccc(F)c(Cl)c3)c2cc1NC(=O)/C=C/CN1CCCCC1; assay: as above; conditions: exposure time: 5 days
Procedure, shortened: as §1

Test System	surviving fraction ([1]; 0.5 nM)	surviving fraction ([1]; 1 nM)	surviving fraction ([1]; 5 nM)	surviving fraction ([1]; 10 nM)	surviving fraction ([1]; 50 nM)	surviving fraction ([1]; 100 nM)	surviving fraction ([1]; 500 nM)	surviving fraction ([1]; 1000 nM)	surviving fraction ([2]; 0.5 nM)	surviving fraction ([2]; 1 nM)	surviving fraction ([2]; 5 nM)	surviving fraction ([2]; 10 nM)	surviving fraction ([2]; 50 nM)	surviving fraction ([2]; 100 nM)	surviving fraction ([2]; 500 nM)	surviving fraction ([2]; 1000 nM)
SUM149.B1*.S BREAST	0.902 ± 0.028	0.898 ± 0.036	0.921 ± 0.037	0.904 ± 0.04	0.96 ± 0.032	0.929 ± 0.037	0.855 ± 0.056	0.729 ± 0.051	1.06 ± 0.066	1.03 ± 0.035	1.02 ± 0.02	1.03 ± 0.043	0.962 ± 0.026	0.977 ± 0.036	0.833 ± 0.026	0.914 ± 0.043
T47D BREAST	0.912 ± 0.03	0.949 ± 0.026	0.938 ± 0.049	0.95 ± 0.026	1.02 ± 0.038	1.03 ± 0.059		0.856 ± 0.041	1.03 ± 0.044	1.11 ± 0.045	1.07 ± 0.041	1.04 ± 0.027	1.043 ± 0.0096	1.07 ± 0.034	1.05 ± 0.05	1.02 ± 0.046
SUM159 BREAST	1.07 ± 0.2	1.07 ± 0.17	1.07 ± 0.18	1.05 ± 0.16	1.07 ± 0.19	0.984 ± 0.06	1.04 ± 0.19	0.94 ± 0.086	1.08 ± 0.076	1.14 ± 0.16	1.1 ± 0.14	1.13 ± 0.2	1.06 ± 0.065	0.931 ± 0.14	1.01 ± 0.052	0.984 ± 0.017
CADOES1 SOFT TISSUE		0.89 ± 0.16	0.961 ± 0.088	0.936 ± 0.036	0.93 ± 0.042	0.941 ± 0.04	0.576 ± 0.054	0.291 ± 0.033	0.985 ± 0.058	0.938 ± 0.14	1.03 ± 0.16	0.873 ± 0.046	0.884 ± 0.07	0.896 ± 0.047	0.891 ± 0.018	0.7 ± 0.031
SG32 HEADNECK	0.809 ± 0.17	0.907 ± 0.093	0.931 ± 0.15	0.799 ± 0.11	0.955 ± 0.15		0.475 ± 0.06	0.359 ± 0.092	1.24 ± 0.15	0.962 ± 0.098	0.846 ± 0.018	0.958 ± 0.046	0.819 ± 0.071	0.865 ± 0.029	0.695 ± 0.061	0.301 ± 0.034
BT20 BREAST	0.82 ± 0.047	0.792 ± 0.032	0.808 ± 0.092	0.821 ± 0.071	1 ± 0.074	1 ± 0.052	0.786 ± 0.04	0.468 ± 0.078	1.08 ± 0.071	1 ± 0.12	0.895 ± 0.015	0.934 ± 0.13	1.05 ± 0.028	0.996 ± 0.13	1.13 ± 0.045	0.809 ± 0.16
OSHN BONE	0.908 ± 0.013	0.9047 ± 0.0064	0.91 ± 0.0079	0.9 ± 0.01	0.992 ± 0.023	0.971 ± 0.018	0.868 ± 0.013	0.189 ± 0.029	1.07 ± 0.034	1.06 ± 0.044	1.08 ± 0.033	1.05 ± 0.035	1.1 ± 0.037	1.1 ± 0.027	1.06 ± 0.047	1.029 ± 0.0075
C33A CERVIX	1.01 ± 0.068		1.08 ± 0.13	1.14 ± 0.059	1.06 ± 0.044		0.565 ± 0.028	0.515 ± 0.011	0.793 ± 0.044	0.93 ± 0.15	0.899 ± 0.017	0.802 ± 0.085	0.517 ± 0.051	0.428 ± 0.022	0.358 ± 0.019	0.296 ± 0.02
SKBR3 BREAST	0.731 ± 0.039	0.814 ± 0.075		0.859 ± 0.071	0.997 ± 0.12		0.759 ± 0.035		0.879 ± 0.038	0.983 ± 0.089	0.522 ± 0.041	0.471 ± 0.03	0.195 ± 0.0032	0.161 ± 0.017	0.145 ± 0.018	0.105 ± 0.018
22RV1 PROSTATE	0.954 ± 0.079	1.01 ± 0.02	0.958 ± 0.022	0.944 ± 0.033			0.59 ± 0.078	0.406 ± 0.027	1 ± 0.17	1.04 ± 0.099	0.977 ± 0.059	1 ± 0.087	1.03 ± 0.05	0.97 ± 0.063	1.02 ± 0.061	0.9 ± 0.045
LNCAP PROSTATE	1.07 ± 0.056	1.16 ± 0.13	1.15 ± 0.034	1.13 ± 0.12	1 ± 0.045	0.801 ± 0.17	0.528 ± 0.075	0.464 ± 0.031	0.807 ± 0.074	0.828 ± 0.13	0.858 ± 0.19	0.888 ± 0.16	0.95 ± 0.043	1.02 ± 0.048	0.896 ± 0.097	0.797 ± 0.12
CASKI CERVIX	0.829 ± 0.056	0.782 ± 0.081	0.816 ± 0.011		0.925 ± 0.022	0.88 ± 0.014	0.308 ± 0.018	0.303 ± 0.036	0.801 ± 0.054	0.762 ± 0.015	0.468 ± 0.0036	0.336 ± 0.024	0.285 ± 0.025	0.2623 ± 0.0023	0.0627 ± 0.013	0.024 ± 0.002
HU09 BONE		0.889 ± 0.033		0.95 ± 0.07		0.841 ± 0.014	0.388 ± 0.053	0.197 ± 0.018	1.09 ± 0.03	0.996 ± 0.062	1.14 ± 0.028	1.11 ± 0.12	1.15 ± 0.019	1.01 ± 0.12	0.635 ± 0.0066	0.432 ± 0.026
MDAMB157 BREAST		0.818 ± 0.016	0.967 ± 0.042	0.95 ± 0.029	0.877 ± 0.038	0.836 ± 0.097	0.451 ± 0.017	0.569 ± 0.071	0.951 ± 0.025	0.894 ± 0.018	1 ± 0.046	0.964 ± 0.056	0.95 ± 0.094	0.864 ± 0.051	0.887 ± 0.1	0.63 ± 0.095
HCC78 LUNG	0.898 ± 0.19	0.978 ± 0.1	1.05 ± 0.099	0.838 ± 0.16	0.421 ± 0.08	0.455 ± 0.15	0.166 ± 0.012	0.069 ± 0.021	0.902 ± 0.2	0.733 ± 0.13	0.87 ± 0.051	0.827 ± 0.21	0.749 ± 0.12	0.857 ± 0.086	0.595 ± 0.23	0.447 ± 0.02
HCC1395 BREAST	0.831 ± 0.14	0.74 ± 0.087	0.814 ± 0.074	0.838 ± 0.097	1.01 ± 0.11	1 ± 0.065		1 ± 0.089	0.92 ± 0.09	0.93 ± 0.037	1.08 ± 0.099	1.03 ± 0.036	1.05 ± 0.16	1.01 ± 0.21	0.896 ± 0.14	0.809 ± 0.15
RDES SOFT TISSUE	0.735 ± 0.13	0.716 ± 0.093	0.832 ± 0.028	0.69 ± 0.075	1.02 ± 0.19	0.926 ± 0.17	1.26 ± 0.02	0.127 ± 0.023	1.27 ± 0.17	1.28 ± 0.086	1.28 ± 0.059	1.33 ± 0.18	1.28 ± 0.2	1.23 ± 0.13	1.23 ± 0.15	1.22 ± 0.1
MDAMB231 BREAST		0.939 ± 0.017	0.957 ± 0.022	0.939 ± 0.025	0.955 ± 0.013	0.8698 ± 0.0057	0.437 ± 0.014	0.303 ± 0.012	1.03 ± 0.024	1.02 ± 0.024	1.05 ± 0.019	1.047 ± 0.01	1.02 ± 0.035	1 ± 0.024	0.692 ± 0.022	0.488 ± 0.039
